Where a name gives a salt, the structure may show the parent alone. Read-outs that look alike come from different tables or passages of the source.
Experiments:
[1] = tested on: fibrin-induced microglia activation; test: Image-based assay of fibrin-induced microglia activation (HTS and dose response); type: cell-based, rat; conditions: primary microglia HTS, fibrin stimulation, compounds at 10 μM; for inhibition at 10 µM: Rattus norvegicus, Microglia, read-out: Fibrin % inhibition
[2] = tested on: LPS-induced microglia activation; test: Image-based assay of LPS-induced microglia activation (HTS and dose response); type: cell-based, rat; conditions: primary microglia HTS, LPS stimulation, compounds at 10 μM; for inhibition at 10 µM: Rattus norvegicus, Microglia, read-out: LPS % inhibition
[3] = tested on: fibrin- and LPS-induced microglia activation; test: cells; type: cell-based, rat; conditions: HTS at 10 μM
[4] = tested on: primary rat microglia
[5] = tested on: primary rat microglia; test: Cell toxicity (dead cells, size <150 μm2) in coated fibrin (cFib) assay; conditions: primary microglia HTS, fibrin assay, dead cells (size <150 μm2);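 also: share of dead cells sized under 150 µm2 at 10 µM in fibrin-stimulated microglia HTS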
[6] = classification by fibrin and LPS inhibition
[7] = quadrant by fibrin and LPS inhibition

CC1CC(OC(=O)C(O)c2ccccc2)CC(C)(C)N1C (stereo not drawn) [Eucatropine Hydrochloride]
inhibition at 10 µM [1]: 1%
inhibition at 10 µM [2]: 24%
Quadrant (FIG. 5b) [3, 6]: Q4
LPS % cell toxicity ([4]; rat): 0%
Fibrin % cell toxicity ([5]; compounds at 10 μM): 1%

C=CCc1ccc(O)c(OC)c1 [Eugenol]
inhibition at 10 µM [1]: 37%
inhibition at 10 µM [2]: 20%
Quadrant (FIG. 5b) [3, 6]: Q4
LPS % cell toxicity ([4]; rat): 0%
Fibrin % cell toxicity ([5]; compounds at 10 μM): 0%

Cc1cc(-c2ccc(/N=N/c3ccc4c(S(=O)(=O)O)cc(S(=O)(=O)O)c(N)c4c3O)c(C)c2)ccc1/N=N/c1ccc2c(S(=O)(=O)O)cc(S(=O)(=O)O)c(N)c2c1O [Evans Blue]
inhibition at 10 µM [1]: -37%
inhibition at 10 µM [2]: 7%
Quadrant (FIG. 5b) [3, 6]: Q4
LPS % cell toxicity ([4]; rat): 0%
Fibrin % cell toxicity ([5]; compounds at 10 μM): 0%

CCCCCCOc1ccccc1C(N)=O [Exalamide]
inhibition at 10 µM [1]: -15%
inhibition at 10 µM [2]: 18%
Quadrant (FIG. 5b) [3, 6]: Q4
LPS % cell toxicity ([4]; rat): 0%
Fibrin % cell toxicity ([5]; compounds at 10 μM): 1%

O=C1[C@H](CC[C@H](O)c2ccc(F)cc2)[C@@H](c2ccc(O)cc2)N1c1ccc(F)cc1 [Ezetimibe]
inhibition at 10 µM [1]: 41%
inhibition at 10 µM [2]: 27%
Quadrant (FIG. 5b) [3, 6]: Q4
LPS % cell toxicity ([4]; rat): 0%
Fibrin % cell toxicity ([5]; compounds at 10 μM): 1%

CC(=O)OCC(CCn1cnc2cnc(N)nc21)COC(C)=O [Famciclovir]
inhibition at 10 µM [1]: -22%
inhibition at 10 µM [2]: 14%
Quadrant (FIG. 5b) [3, 6]: Q4
LPS % cell toxicity ([4]; rat): 1%
Fibrin % cell toxicity ([5]; compounds at 10 μM): 0%

CC(C)c1c(CN(C)C(C)Cc2ccccc2)n(C)n(-c2ccccc2)c1=O (stereo not drawn) [Famprofazone]
inhibition at 10 µM [1]: -3%
inhibition at 10 µM [2]: 15%
Quadrant (FIG. 5b) [3, 6]: Q4
LPS % cell toxicity ([4]; rat): 0%
Fibrin % cell toxicity ([5]; compounds at 10 μM): 1%

O=S(=O)(c1cccc2cnccc12)N1CCCNCC1 [Fasudil Hydrochloride]
inhibition at 10 µM [1]: -72%
inhibition at 10 µM [2]: -21%
Quadrant (FIG. 5b) [3, 6]: Q4
LPS % cell toxicity ([4]; rat): 0%
Fibrin % cell toxicity ([5]; compounds at 10 μM): 1%

Cc1nc(-c2ccc(OCC(C)C)c(C#N)c2)sc1C(=O)O [Febuxostat]
inhibition at 10 µM [1]: 3%
inhibition at 10 µM [2]: 10%
Quadrant (FIG. 5b) [3, 6]: Q4
LPS % cell toxicity ([4]; rat): 0%
Fibrin % cell toxicity ([5]; compounds at 10 μM): 1%

NC(=O)OCC(COC(N)=O)c1ccccc1 [Felbamate]
inhibition at 10 µM [1]: -32%
inhibition at 10 µM [2]: 0%
Quadrant (FIG. 5b) [3, 6]: Q4
LPS % cell toxicity ([4]; rat): 0%
Fibrin % cell toxicity ([5]; compounds at 10 μM): 1%

CCOC(=O)C1=C(C)NC(C)=C(C(=O)OC)C1c1cccc(Cl)c1Cl (stereo not drawn) [Felodipine]
inhibition at 10 µM [1]: 2%
inhibition at 10 µM [2]: 14%
Quadrant (FIG. 5b) [3, 6]: Q4
LPS % cell toxicity ([4]; rat): 0%
Fibrin % cell toxicity ([5]; compounds at 10 μM): 1%

O=C(CCCl)NCCc1ccccc1 [Fenaclon]
inhibition at 10 µM [1]: 8%
inhibition at 10 µM [2]: 16%
Quadrant (FIG. 5b) [3, 6]: Q4
LPS % cell toxicity ([4]; rat): 0%
Fibrin % cell toxicity ([5]; compounds at 10 μM): 1%

O=C(O)CCC(=O)c1ccc(-c2ccccc2)cc1 [Fenbufen]
inhibition at 10 µM [1]: 3%
inhibition at 10 µM [2]: 25%
Quadrant (FIG. 5b) [3, 6]: Q4
LPS % cell toxicity ([4]; rat): 0%
Fibrin % cell toxicity ([5]; compounds at 10 μM): 0%

CCCCC(O)c1ccccc1 (stereo not drawn) [Fenipentol]
Fibrin % inhibition [1]: −1%
LPS % inhibition [2]: 25%
Quadrant (FIG. 5b) [3, 6]: Q4
LPS % cell toxicity [4]: 0%
Fibrin % cell toxicity ([5]; compounds at 10 μM): 1%

C[C@@H]1C[C@H]2[C@@H]3CCC4=CC(=O)C=C[C@]4(C)[C@@]3(Cl)[C@@H](O)C[C@]2(C)[C@@]1(OC(=O)c1ccco1)C(=O)CCl [Mometasone Furoate]
inhibition at 10 µM [1]: 100%
inhibition at 10 µM [2]: 106%
Quadrant (FIG. 5b) [3, 7]: Q2
LPS % cell toxicity ([4]; rat): 4%
Fibrin % cell toxicity [5]: 3%

CC(C)(C)NCC(O)COc1cccc2c1CC(O)C(O)C2 (stereo not drawn) [Nadolol]
inhibition at 10 µM [1]: 107%
inhibition at 10 µM [2]: 108%
Quadrant (FIG. 5b) [3, 7]: Q2
LPS % cell toxicity ([4]; rat): 3%
Fibrin % cell toxicity [5]: 4%

O=C1CC[C@@]2(O)[C@H]3Cc4ccc(O)c5c4[C@@]2(CCN3CC2CC2)[C@H]1O5 [Naltrexone Hydrochloride]
inhibition at 10 µM [1]: 107%
inhibition at 10 µM [2]: 79%
Quadrant (FIG. 5b) [3, 7]: Q2
LPS % cell toxicity ([4]; rat): 2%
Fibrin % cell toxicity [5]: 4%

Cc1c(NC(=O)c2cccnc2)c(=O)n(-c2ccccc2)n1C [Nifenazone]
inhibition at 10 µM [1]: 114%
inhibition at 10 µM [2]: 132%
Quadrant (FIG. 5b) [3, 7]: Q2
LPS % cell toxicity ([4]; rat): 78%
Fibrin % cell toxicity [5]: 85%

Reference: patent US20210330611A1, “THERAPY FOR NEUROLOGICAL DISEASES/DISORDERS” (priority 2020, published 2021)
